Measurements: PubChem BioAssay (NCI)
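Where inhibition never reached the appropriate level, the endpoint shown equals the highest concentration tested. Otherwise, values were interpolated linearly from a five-concentration, 48-hour dose response in 96-well plates. TGI marks complete inhibition of growth.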

Tests used:
Experiment in all cases: DTP human tumour cell line panel, 48 h
786-0 renal = system: 786-0 renal
DMS 114 small cell lung = system: DMS 114 small cell lung
KM20L2 colon = system: KM20L2 colon
RXF-631 renal = system: RXF-631 renal
DU-145 prostate = system: DU-145 prostate
HS 578T breast = system: HS 578T breast
NCI/ADR-RES ovarian = system: NCI/ADR-RES ovarian
MCF7 breast = system: MCF7 breast

CCCCCCCCCCCCOC(=N)N1CCOCC1
TGI (786-0 renal): 28.4 µM | TGI (DMS 114 small cell lung): 19.7 µM | TGI (KM20L2 colon): 13.4 µM | TGI (RXF-631 renal): 22.6 µM

CS(=O)(=O)Sc1ccc(Cl)cc1
TGI (786-0 renal): 19.2 µM | TGI (KM20L2 colon): 24.3 µM | TGI (RXF-631 renal): 20 µM

Nc1ccc(Oc2ccc(C3(c4ccc(Oc5ccc(N)c(O)c5)cc4)C4CC5CC(C4)CC3C5)cc2)cc1O
TGI (DU-145 prostate): 3.68 µM | TGI (HS 578T breast): 5.32 µM | TGI (NCI/ADR-RES ovarian): 5.91 µM

O=c1cc(O)c1=O
TGI (DU-145 prostate): > 100 µM | TGI (HS 578T breast): > 100 µM | TGI (MCF7 breast): > 100 µM
